Consider one compound from patent publication US9187411B2, “Leukotriene B4 antagonist compound” (Eli Lilly and Company, priority 2012, dated 2015).

The test deals with CaCl2-induced abdominal aortic aneurysm. Kind of test: CaCl2-induced AAA animal efficacy model, rats. The test is classed as in vivo, Sprague-Dawley rats. As to conditions: 28 days, aortic lumenal perimeter. The source says:
A targeted application of a calcium chloride solution to the mouse aorta induces vessel dilatation Chiou et al. J. Surg. Res. (2001), 99: 371-376; Lomgo et al. J. Clin. Invest. (2002), 110: 625-632. Two weeks after treatment, the vessel dilatation compared to the original vessel diameter becomes statistically significant, with up to 75% increase of aortic lumenal perimeter after 4 weeks. Calcium precipitates have been localized primarily within the elastic network of the media. Disruption of this structure by the calcium-elastic tissue complex weakens the vessel wall, contributing to aneurysm formation. This injury also serves as a proinflammatory stimulus, recruiting neutrophils, lymphocytes, monocytes, and mast cells.
Rats: Sprague-Dawley rats, 7-8 weeks of age, are acquired from Harlan, Indianapolis, Ind., USA
Aneurysm Induction Model: All procedures are performed in accordance with Eli Lilly and Company Institutional Animal Care and Use guidelines. Upon their arrival, animals have a one week acclimation period during which they have ad libitum access to standard rodent chow (Purina #2014) and house water. Following the acclimation period, animals are anesthetized with isoflurane, and a laparotomy is performed for the CaCl2-stimulated induction of the abdominal aortic aneurysm (AAA). […] Once isolated, the region of interest (ROI) of the abdominal aorta is wrapped with sterile, cotton gauze presoaked in a 0.25 M CaCl2 solution. In sham control animals, 0.9% saline is substituted for CaCl2. After 7 min, the gauze is removed and a second CaCl2 soaked gauze reapplied. Following the second 7 min period, the gauze is removed, the aorta rinsed with 0.9% saline and the abdomen closed Animals are returned to general housing at the end of their surgical day. Compound Administration: Mice receive test compound (Example 2) by oral gavage at a dose volume of 10 mL/kg of body weight, and rats receive test compound (Example 2) by oral gavage at a dose volume of 2.5 mL/kg of body weight. Compound administration is BID (a.m. and p.m.) with the first dose given one day prior to surgery (p.m.) and the second dose given the morning of surgery. […] The day after surgery, dosing continues BID for 28 days. […] Interior cross sectional lumenal perimeter measurements (mm) are collected at that point to assess efficacy and statistically analyzed with JMP® 7 software (Cary, N.C.). Statistical Analysis: Measurements of lumenal perimeter are expressed as mean values±SE. […]
In a similar study design, the ability of the compound of Example 2 to modulate aortic aneurysm dilation following CaCl2-induced injury is evaluated in Sprague-Dawley rats.

Regarding `CCCc1c(NC(=O)CC(C)(C)C(=O)[O-])cccc1OCCCOc1cc(O)c(-c2ccc(F)cc2)cc1CC.[Na+]` [Example 2, Sodium 4-[[3-[3-[2-ethyl-4-(4-fluorophenyl)-5-hydroxy-phenoxy]propoxy]-2-propyl-phenyl]amino]-2,2-dimethyl-4-oxo-butanoate], the “% Reduced (±S.E.) of AAA” value runs as follows: (3 mg/kg b.i.d. oral gavage) 46% ± 7; (10 mg/kg b.i.d. oral gavage) 69% ± 4; (30 mg/kg b.i.d. oral gavage) 85% ± 5; (60 mg/kg b.i.d. oral gavage) 69% ± 10.
